From patent publication US20240116985A1, “STAPLED PEPTIDES AND METHODS THEREOF” (priority 2020, published 2024)
Read-outs that look alike come from different tables or passages of the source.

Assays:
[1] = molecular target: T1, full-length beta-Catenin (Uniprot ID P35222) (Homo sapiens, UniProt P35222); assay: Fluorescence polarization IC50 (beta-catenin / 5FAM-TCF4 10-53 competition); assay type: binding; settings: fluorescence polarization; read-out: beta-Catenin FP IC50
T1 construct: 10 nM full-length beta-Catenin (Uniprot ID P35222)
T1 sequence (P35222 1-781): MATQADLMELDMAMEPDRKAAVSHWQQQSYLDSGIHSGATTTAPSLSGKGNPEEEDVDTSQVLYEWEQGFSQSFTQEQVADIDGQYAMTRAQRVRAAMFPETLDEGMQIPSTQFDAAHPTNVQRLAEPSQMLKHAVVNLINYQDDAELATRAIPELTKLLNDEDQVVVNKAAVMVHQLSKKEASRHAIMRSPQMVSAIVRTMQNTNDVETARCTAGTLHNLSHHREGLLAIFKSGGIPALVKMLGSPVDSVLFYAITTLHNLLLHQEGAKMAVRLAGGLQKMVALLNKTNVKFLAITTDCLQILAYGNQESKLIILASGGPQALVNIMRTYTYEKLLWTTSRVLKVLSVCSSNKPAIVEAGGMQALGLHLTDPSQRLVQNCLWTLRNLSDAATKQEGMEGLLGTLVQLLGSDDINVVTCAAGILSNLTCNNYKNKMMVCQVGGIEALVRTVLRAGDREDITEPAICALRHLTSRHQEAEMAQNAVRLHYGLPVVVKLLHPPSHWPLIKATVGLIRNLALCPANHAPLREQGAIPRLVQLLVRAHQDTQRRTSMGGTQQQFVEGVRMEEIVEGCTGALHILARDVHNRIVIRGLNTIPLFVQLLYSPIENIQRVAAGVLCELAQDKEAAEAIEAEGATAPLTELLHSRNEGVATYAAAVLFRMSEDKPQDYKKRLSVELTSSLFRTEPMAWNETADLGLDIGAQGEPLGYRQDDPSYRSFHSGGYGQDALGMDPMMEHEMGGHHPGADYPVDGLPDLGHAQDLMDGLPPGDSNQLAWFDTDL

[2] = molecular target: T2, beta-catenin/TCF4 engagement (Homo sapiens, UniProt P35222); assay: Nano-BRET target engagement assay (B-cat-Halo & TCF4-Luc in HEK293 cells); assay type: cell-based; settings: read-out: NanoBRET Abs IC50
T2 construct: expressed in transfected cells; host or cells: HEK293
T2 sequence (P35222 1-781): T1 sequence (P35222 1-781)

IC50 [1]	IC50 ([2]; absolute IC50)	IC50 [2]	SMILES
11 nM	25200 nM		CC(=O)N1CCC[C@]12CC=CCCCC1(CCCC=CCCCOC(=O)N3CC[C@@](C(=O)N[C@@H](Cc4ccsc4)C(=O)N[C@@H](Cc4csc5ccccc45)C(=O)N[C@@H](CCC(=O)N4CCC(N5CCN(C)CC5)CC4)C(N)=O)(C3)NC(=O)[C@H](CC(C)C)NC(=O)[C@H](Cc3ccccc3)NC(=O)[C@H](C)NC(=O)[C@H](C)NC(=O)[C@H](CN(CC(=O)O)CC(F)(F)F)NC(=O)[C@H](CC(=O)O)NC1=O)NC(=O)[C@H](CC(C)(C)C)NC(=O)[C@H](CC(=O)O)NC2=O (stereo partly drawn) [I-1802, Ac-PL3-Asp-Npg-B5-Asp-TfeGA-Ala-Ala-Phe-Leu-PyrS2-3Thi-BztA-[4MePpzPip]GlnR-NH2]
17 nM	6900 nM		CC(=O)N1CCC[C@]12CC=CCCCC1(CCCC=CCCCOC(=O)N3CC[C@@](C(=O)N[C@@H](Cc4ccccc4C#N)C(=O)N[C@@H](Cc4csc5ccccc45)C(=O)N[C@@H](CCC(N)=O)C(N)=O)(C3)NC(=O)[C@H](CC(C)C)NC(=O)[C@H](Cc3ccccc3)NC(=O)[C@H](C)NC(=O)[C@H](C)NC(=O)[C@H](CN(CC(=O)O)CC(F)(F)F)NC(=O)[C@H](CC(=O)O)NC1=O)NC(=O)[C@H](CC(C)(C)C)NC(=O)[C@H](CC(=O)O)NC2=O (stereo partly drawn) [I-1702, Ac-PL3-Asp-Npg-B5-Asp-TfeGA-Ala-Ala-Phe-Leu-PyrS2-2CNF-BztA-Gln-NH2]
47 nM	6300 nM		CC(=O)N1CCC[C@]12CC=CCCCC1(CCCC=CCCCOC(=O)N3CC[C@@](C(=O)N[C@@H](Cc4ccccc4C(F)(F)F)C(=O)N[C@@H](Cc4cccc(Cl)c4)C(=O)N[C@@H](C)C(N)=O)(C3)NC(=O)[C@H](CC(C)C)NC(=O)[C@H](Cc3ccccc3)NC(=O)[C@H](C)NC(=O)[C@H](CCC(N)=O)NC(=O)[C@H](Cc3cccc(C(=O)O)c3)NC(=O)[C@H](CC(=O)O)NC1=O)NC(=O)[C@H](CC(C)(C)C)NC(=O)[C@H](CC(=O)O)NC2=O (stereo partly drawn) [I-2227, Ac-PL3-Asp-Npg-B5-Asp-3COOHF-Gln-Ala-Phe-Leu-PyrS2-2F3MeF-3C1F-Ala-NH2]
32 nM	9500 nM		CC(=O)N1CCC[C@]12CC=CCCCC1(CCCC=CCCCOC(=O)N3CC[C@@](C(=O)N[C@@H](Cc4ccsc4)C(=O)N[C@@H](Cc4csc5ccccc45)C(=O)N[C@@H](CCC(N)=O)C(N)=O)(C3)NC(=O)[C@H](CC(C)C)NC(=O)[C@H](Cc3ccccc3)NC(=O)[C@H](C)NC(=O)[C@H](C)NC(=O)[C@H](CNc3ccc([N+](=O)[O-])cc3C(=O)O)NC(=O)[C@H](CC(=O)O)NC1=O)NC(=O)[C@H](CC(C)(C)C)NC(=O)[C@H](CC(=O)O)NC2=O (stereo partly drawn) [I-1843, Ac-PL3-Asp-Npg-B5-Asp-[2COOH4NO2Ph]Dap-Ala-Ala-Phe-Leu-PyrS2-3Thi-BztA-Gln-NH2]
16 nM		11800 nM	CC(=O)N1CCC[C@]12CC=CCCCC1(CCCC=CCCCOC(=O)N3CC[C@@](C(=O)N[C@@H](Cc4ccsc4)C(=O)N[C@@H](Cc4csc5ccccc45)C(=O)N[C@@H](C)C(N)=O)(C3)NC(=O)[C@H](CC(C)C)NC(=O)[C@H](Cc3ccccc3)NC(=O)[C@H](C)NC(=O)[C@H](CCS(C)(=O)=O)NC(=O)[C@H](Cc3cccc(C(=O)O)c3)NC(=O)[C@H](CC(=O)O)NC1=O)NC(=O)[C@H](CC(C)(C)C)NC(=O)[C@H](CC(=O)O)NC2=O (stereo partly drawn) [I-2064, Ac-PL3-Asp-Npg-B5-Asp-3COOHF-Met2O-Ala-Phe-Leu-PyrS2-3Thi-BztA-Ala-NH2]
13 nM	4500 nM		CC(=O)N1CCC[C@]12CC=CCCCC1(CCCC=CCCCOC(=O)N3CC[C@@](C(=O)N[C@@H](Cc4ccccc4C(F)(F)F)C(=O)N[C@@H](Cc4csc5ccccc45)C(=O)N[C@@H](CCC(=O)N(C)C)C(N)=O)(C3)NC(=O)[C@H](CCC(=O)N(C)C)NC(=O)[C@H](Cc3ccccc3)NC(=O)[C@H](C)NC(=O)[C@H](C)NC(=O)[C@H](Cc3cccc(C(=O)O)c3)NC(=O)[C@H](CC(=O)O)NC1=O)NC(=O)[C@H](CC(C)(C)C)NC(=O)[C@H](CC(=O)O)NC2=O (stereo partly drawn) [I-2536, Ac-PL3-Asp-Npg-B5-Asp-3COOHF-Ala-Ala-Phe-Me2Gln-PyrS2-2F3MeF-BztA-Me2Gln-NH2]
63 nM	> 20000 nM		CC(=O)N1CCC[C@]12CC=CCCCC1(CCCC=CCCCOC(=O)N3CC[C@@](C(=O)N[C@@H](Cc4ccccc4)C(=O)N[C@@H](Cc4csc5ccccc45)C(=O)N[C@@H](CCCCN)C(N)=O)(C3)NC(=O)[C@H](CC(C)C)NC(=O)[C@H](Cc3ccccc3)NC(=O)[C@H](C)NC(=O)[C@H](CCCCNC(C)C)NC(=O)[C@H](CCC(N)=O)NC(=O)[C@H](CC(=O)O)NC1=O)NC(=O)[C@H](CC1CCCCC1)NC(=O)[C@H](CC(N)=O)NC2=O (stereo partly drawn) [I-2350, Ac-PL3-Asn-Cha-B5-Asp-Gln-iPrLys-Ala-Phe-Leu-PyrS2-Phe-BztA-Lys-NH2]
13 nM	17400 nM		CC(=O)N1CCC[C@]12CC=CCCCC1(CCCC=CCCCOC(=O)N3CC[C@@](C(=O)N[C@@H](Cc4ccsc4)C(=O)N[C@@H](Cc4csc5ccccc45)C(=O)N[C@@H](CCC(N)=O)C(N)=O)(C3)NC(=O)[C@H](CC(C)C)NC(=O)[C@H](Cc3ccccc3)NC(=O)[C@H](C)NC(=O)[C@H](C)NC(=O)[C@H](CC(=O)O)NC(=O)[C@H](CC(=O)O)NC1=O)NC(=O)[C@H](CC(C)C)NC(=O)[C@H](CC(=O)O)NC2=O (stereo partly drawn) [I-1399, Ac-PL3-Asp-Leu-B5-Asp-Asp-Ala-Ala-Phe-Leu-PyrS2-3Thi-BztA-Gln-NH2]
13 nM		10500 nM	CC(=O)N1CCC[C@]12CC=CCCCC1(CCCC=CCCCOC(=O)N3CC[C@@](C(=O)N[C@@H](Cc4ccsc4)C(=O)N[C@@H](Cc4csc5ccccc45)C(=O)N[C@H](C(N)=O)C(C)C)(C3)NC(=O)[C@H](CC(C)C)NC(=O)[C@H](Cc3ccccc3)NC(=O)[C@H](C)NC(=O)[C@H](CCC(N)=O)NC(=O)[C@H](Cc3cccc(C(=O)O)c3)NC(=O)[C@H](CC(=O)O)NC1=O)NC(=O)[C@H](CC(C)(C)C)NC(=O)[C@H](CC(=O)O)NC2=O (stereo partly drawn) [I-2055, Ac-PL3-Asp-Npg-B5-Asp-3COOHF-Gln-Ala-Phe-Leu-PyrS2-3Thi-BztA-Val-NH2]
16 nM	23700 nM		CC(=O)N1CCC[C@]12CC=CCCCC1(CCCC=CCCCCCC[C@@](C)(C(=O)N[C@@H](Cc3ccsc3)C(=O)N[C@@H](Cc3csc4ccccc34)C(=O)N[C@@H](CCC(N)=O)C(N)=O)NC(=O)[C@H](CC(N)=O)NC(=O)[C@H](Cc3ccccc3)NC(=O)[C@H](C)NC(=O)[C@H](C)NC(=O)[C@H](CN(CC(=O)O)Cc3ccccc3)NC(=O)[C@H](CC(=O)O)NC1=O)NC(=O)[C@H](CC(C)(C)C)NC(=O)[C@H](CC(=O)O)NC2=O (stereo partly drawn) [I-1456, Ac-PL3-Asp-Npg-B5-Asp-[Bn]GA-Ala-Ala-Phe-Asn-S8-3Thi-BztA-Gln-NH2]
210 nM	> 20000 nM		CC(=O)N1CCC[C@]12CC=CCCCC1(CCCC=CCCCOC(=O)N3CC[C@@](C(=O)N[C@@H](Cc4ccccc4)C(=O)N[C@@H](Cc4csc5ccccc45)C(=O)N[C@@H](CC(=O)N4CCOCC4)C(N)=O)(C3)NC(=O)[C@H](CC(C)C)NC(=O)[C@H](Cc3ccccc3)NC(=O)[C@H](C)NC(=O)[C@H](CCC(N)=O)NC(=O)[C@H](CCC(N)=O)NC(=O)[C@H](CC(=O)O)NC1=O)NC(=O)[C@H](CC1CCCCC1)NC(=O)[C@H](CC(N)=O)NC2=O (stereo partly drawn) [I-2504, Ac-PL3-Asn-Cha-B5-Asp-Gln-Gln-Ala-Phe-Leu-PyrS2-Phe-BztA-MorphAsn-NH2]
83 nM		33400 nM	CCCC[C@@H]1NC(=O)[C@H](Cc2cccc(C(=O)O)c2)NC(=O)[C@H](CC(=O)O)NC(=O)C2(CCCC=CCCCOC(=O)N3CC[C@@](C(=O)N[C@@H](Cc4ccsc4)C(=O)N[C@@H](Cc4csc5ccccc45)C(=O)N[C@H](C(N)=O)C(C)C)(C3)NC(=O)[C@H](CC(C)C)NC(=O)[C@H](Cc3ccccc3)NC(=O)[C@H](C)NC1=O)CCCC=CC[C@]1(CCCN1C(C)=O)C(=O)N[C@@H](CC(=O)O)C(=O)N[C@@H](CC(C)(C)C)C(=O)N2 (stereo partly drawn) [I-2189, Ac-PL3-Asp-Npg-B5-Asp-3COOHF-nLeu-Ala-Phe-Leu-PyrS2-3Thi-BztA-Val-NH2]
5 nM		4500 nM	CC(=O)N1CCC[C@]12CC=CCCCC1(CCCC=CCCCOC(=O)N3CC[C@@](C(=O)N[C@@H](Cc4ccsc4)C(=O)N[C@@H](Cc4csc5ccccc45)C(=O)N[C@@H](C)C(N)=O)(C3)NC(=O)[C@H](CC(C)C)NC(=O)[C@H](Cc3ccccc3)NC(=O)[C@H](C)NC(=O)[C@H](CC(N)=O)NC(=O)[C@H](Cc3cccc(C(=O)O)c3)NC(=O)[C@H](CC(=O)O)NC1=O)NC(=O)[C@H](CC(C)(C)C)NC(=O)[C@H](CC(=O)O)NC2=O (stereo partly drawn) [I-2049, Ac-PL3-Asp-Npg-B5-Asp-3COOHF-Asn-Ala-Phe-Leu-PyrS2-3Thi-BztA-Ala-NH2]
